Values after ≈ are worked out from the molar mass of the structure shown. Active and inactive are the calls of the source. The rule behind the calls is not given here.

For series [1], the system named is Pseudomonas aeruginosa. In words: Antimicrobial activity against Pseudomonas aeruginosa assessed as zone of inhibition at 10 uM/disk after 24 hrs by disk diffusion method. It counts as functional. The settings on record: for zone of inhibition at 10 µM: read-out: DIZ. A general note: In agar diffusion tests the substance spreads into inoculated agar from a disc or well.

Series [2] has as its system Pseudomonas aeruginosa. In words: Antimicrobial activity against Pseudomonas aeruginosa assessed as zone of inhibition at 2000 uM/disk after 24 hrs by disk diffusion method. The series is classed as functional. To be noted: for zone of inhibition at 2000 µM: read-out: DIZ.
Series [3] relates to Pseudomonas aeruginosa. In words: Antimicrobial activity against Pseudomonas aeruginosa assessed as zone of inhibition at 100 uM/disk after 24 hrs by disk diffusion method. To be noted: for zone of inhibition at 100 µM: read-out: DIZ. The series is classed as functional.
Another series deals with HeLa. In words: Cytotoxicity against human HeLa cells assessed as cell viability at 20 uM after 24 hrs by resazurin based fluorescence assay relative to control. It counts as functional. To be noted: read-out: Activity. For orientation: Resazurin is reduced to fluorescent resorufin, in cell work by metabolically active cells.
Series [4] has as its system Pseudomonas aeruginosa. In words: Antimicrobial activity against Pseudomonas aeruginosa assessed as zone of inhibition at 1000 uM/disk after 24 hrs by disk diffusion method. The series is classed as functional. The settings on record: for zone of inhibition at 1000 µM: read-out: DIZ.
The subject of series [5] is Pseudomonas aeruginosa. In words: Antimicrobial activity against Pseudomonas aeruginosa assessed as zone of inhibition at 1 uM/disk after 24 hrs by disk diffusion method. The series is classed as functional.
The test system of series [6] is Mycobacterium tuberculosis. In words: Antitubercular activity against Mycobacterium tuberculosis H37Rv assessed as reduction in bacterial growth after 7 days by green fluorescent protein microplate assay. It counts as functional. The settings on record: 168 h.
The next series relates to SH-SY5Y. In words: Cytotoxicity against human SH-SY5Y assessed as reduction in cell viability after 48 hrs by xCELLigence RTCA SP analysis. The series is classed as functional, cell-based.
Series [7] has as its system Pseudomonas aeruginosa. In words: Antimicrobial activity against Pseudomonas aeruginosa assessed as zone of inhibition after 24 hrs by disk diffusion method. It counts as functional, organism-based.
Series [8] concerns Plasmodium falciparum. In words: Antimalarial activity against Plasmodium falciparum 3D7 assessed as reduction in parasite viability at 20 uM by parasite lactate dehydrogenase released based colorimetric assay relative to control. The series is classed as functional.
The subject of series [9] is Mycobacterium tuberculosis. In words: Antitubercular activity against Mycobacterium tuberculosis H37Rv assessed as reduction in bacterial growth after 14 days by green fluorescent protein microplate assay. To be noted: 336 h. The series is classed as functional.
Series [10] can be described thus: Lipophilicity, log P of the compound. To be noted: octanol/water. It counts as physicochemical.
The test system of series [11] is Plasmodium falciparum. In words: Stimulation of parasite proliferation of Plasmodium falciparum 3D7 assessed as increase in parasite viability at 20 uM by parasite lactate dehydrogenase released based colorimetric assay relative to control. It counts as organism-based.
Series [12] relates to Pseudomonas aeruginosa. In words: Antimicrobial activity against Pseudomonas aeruginosa assessed as zone of inhibition at 25 ug/disk after 24 hrs by disk diffusion method. The series is classed as functional. To be noted: read-out: DIZ.
The subject of series [13] is Plasmodium falciparum. In words: Antimalarial activity against Plasmodium falciparum 3D7 assessed as reduction in parasite viability by parasite lactate dehydrogenase release based colorimetric assay. It counts as functional, organism-based.
Series [14] relates to Pseudomonas aeruginosa. In words: Antimicrobial activity against Pseudomonas aeruginosa assessed as zone of inhibition at 10 ug/disk after 24 hrs by disk diffusion method. It counts as functional. To be noted: read-out: DIZ.

On to `CCN(CC)CCCC(C)Nc1ccnc2cc(Cl)ccc12` (centres undefined) [CHLOROQUINE], for which the “diameter of the inhibition zone (DIZ)” value with Pseudomonas aeruginosa [1], in the series on Pseudomonas aeruginosa [2], in the series with Pseudomonas aeruginosa [3], with Pseudomonas aeruginosa [4] and with Pseudomonas aeruginosa [5] was “inactive” each time. Moreover, the viability at 20 µM with HeLa amounted to 3.6%.

The MIC90 is the lowest concentration that inhibits either 90% of growth or 90% of the strains tested, depending on the study. What is called IC50 is the point on the concentration scale where inhibition reaches its midpoint. What is called inhibition is the drop in the measured response relative to a control, in per cent. As usually defined, the MIC99 is the lowest concentration that inhibits either 99% of growth or 99% of the strains tested, depending on the study. The term logP denotes a log measure of how a compound divides between an organic and an aqueous phase. Consider `O=C1C(Cl)=C(Nc2nc(-c3ccc(Cl)cc3)cs2)C(=O)c2ccccc21`, for which the “diameter of the inhibition zone (DIZ)” value in the series on Pseudomonas aeruginosa [1] and in the series with Pseudomonas aeruginosa [5] was “inactive” each time. Also, the zone of inhibition at 2000 µM in the series with Pseudomonas aeruginosa [2] was determined as 12 mm. In the series with Pseudomonas aeruginosa [3], the zone of inhibition at 100 µM is 7.6 mm. For the same compound, in [6], the MIC90 was greater than 20 µM. Moreover, the Activity entry in the series with SH-SY5Y and with Pseudomonas aeruginosa [7] was “Dose-dependent effect” each time. Moreover, in the series with SH-SY5Y, the IC50 is 2.7 µM. Moreover, the inhibition at 20 µM in the series with Plasmodium falciparum [8] was 30%. Further, in series [9], the MIC99 was greater than 20 µM. The same compound showed a logP in series [10] of less than 5. In the series on HeLa, the viability at 20 µM is 80%. Besides, the zone of inhibition at 1000 µM in the series on Pseudomonas aeruginosa [4] stood at 9.7 mm.

Take `O=C(O)c1csc(NC2=C(Cl)C(=O)c3ccccc3C2=O)n1`: the Activity in the series with Plasmodium falciparum [11] is 15%; with SH-SY5Y it was “Dose-dependent effect”. Further, the “diameter of the inhibition zone (DIZ)” value in the series on Pseudomonas aeruginosa [1], in the series with Pseudomonas aeruginosa [2], in the series with Pseudomonas aeruginosa [3], in the series on Pseudomonas aeruginosa [4] and with Pseudomonas aeruginosa [5] was “inactive” each time. In series [6], the MIC90 was greater than 20 µM. In the series on SH-SY5Y, the IC50 is greater than 100 µM. In series [9], the MIC99 was greater than 20 µM. This compound also registered a logP in series [10] of less than 5. Also, the viability at 20 µM in the series with HeLa was 75%.

For the compound `CC1(C)S[C@@H]2[C@H](NC(=O)[C@H](N)c3ccccc3)C(=O)N2[C@H]1C(=O)O` [AMPICILLIN], in the series with Pseudomonas aeruginosa [12], the zone of inhibition at 25 µg/disc stood at 24.7 mm.

Turning to `O=C1C(Cl)=C(Nc2nc(-c3ccc([N+](=O)[O-])cc3)cs2)C(=O)c2ccccc21`, the “diameter of the inhibition zone (DIZ)” value with Pseudomonas aeruginosa [1] and in the series on Pseudomonas aeruginosa [5] was “inactive” each time. Moreover, the zone of inhibition at 2000 µM in the series on Pseudomonas aeruginosa [2] stood at 14.1 mm. For the same compound, the zone of inhibition at 100 µM in the series on Pseudomonas aeruginosa [3] is 7.2 mm. The MIC90 in series [6] is greater than 20 µM. In addition, in the series with Plasmodium falciparum [13], the IC50 turned out to be 20.3 µM. Further, the Activity result with SH-SY5Y and in the series with Pseudomonas aeruginosa [7] was “Dose-dependent effect” in each case. The inhibition at 20 µM with Plasmodium falciparum [8] is 80 to 90%. In addition, in series [9], the MIC99 was greater than 20 µM. The compound also yielded a logP in [10] of less than 5. In the series with HeLa, the viability at 20 µM is 80%. The zone of inhibition at 1000 µM in the series with Pseudomonas aeruginosa [4] worked out at 11 mm.

For `CCOC(=O)c1csc(NC2=C(Cl)C(=O)c3ccccc3C2=O)n1`, the “diameter of the inhibition zone (DIZ)” value with Pseudomonas aeruginosa [1], in the series with Pseudomonas aeruginosa [2], in the series on Pseudomonas aeruginosa [3], in the series with Pseudomonas aeruginosa [4] and in the series on Pseudomonas aeruginosa [5] was “inactive” throughout. The MIC90 in series [6] was 19.5 µM (≈ 7.07 µg/mL). Besides, the Activity entry in the series on SH-SY5Y was “Dose-dependent effect”. The IC50 with SH-SY5Y was determined as 31.1 µM. Also, the inhibition at 20 µM in the series on Plasmodium falciparum [8] worked out at 40%. Besides, in series [9], the MIC99 is greater than 20 µM. Besides, in [10], the logP was less than 5. Further, the viability at 20 µM in the series on HeLa was determined as 82%.

Regarding `O=C1C(Cl)=C(Nc2nc(-c3ccc(F)cc3)cs2)C(=O)c2ccccc21`, the zone of inhibition at 10 µM in the series on Pseudomonas aeruginosa [1] was 8 mm. Besides, the zone of inhibition at 2000 µM with Pseudomonas aeruginosa [2] turned out to be 19.5 mm. For the same compound, in the series with Pseudomonas aeruginosa [3], the zone of inhibition at 100 µM amounted to 11 mm. Moreover, the MIC90 in series [6] is 9.37 µM (≈ 3.61 µg/mL). The IC50 with Plasmodium falciparum [13] was determined as 44.7 µM; with SH-SY5Y, 1.5 µM. In addition, the Activity entry with SH-SY5Y and in the series on Pseudomonas aeruginosa [7] was “Dose-dependent effect” in each case. The inhibition at 20 µM in the series on Plasmodium falciparum [8] was in the range of 80 to 90%. Moreover, the MIC99 in [9] was 10.4 µM (≈ 4 µg/mL). The compound also yielded a logP in series [10] of less than 5. The viability at 20 µM with HeLa was determined as 75%. Further, the zone of inhibition at 1000 µM in the series with Pseudomonas aeruginosa [4] amounted to 15 mm. Besides, the zone of inhibition at 1 µM with Pseudomonas aeruginosa [5] (read-out: DIZ) amounted to 5 mm.

Turning to `O=C1C(Cl)=C(Nc2nc(-c3ccc(Br)cc3)cs2)C(=O)c2ccccc21`, the “diameter of the inhibition zone (DIZ)” value with Pseudomonas aeruginosa [1], in the series on Pseudomonas aeruginosa [2], with Pseudomonas aeruginosa [3], in the series on Pseudomonas aeruginosa [4] and with Pseudomonas aeruginosa [5] was “inactive” throughout. Moreover, in series [6], the MIC90 is greater than 20 µM. Further, the IC50 in the series on Plasmodium falciparum [13] worked out at 50.6 µM. In addition, in the series with SH-SY5Y, the Activity entry was “Dose-dependent effect”. In addition, the inhibition at 20 µM with Plasmodium falciparum [8] lay within 80 to 90%. In addition, the MIC99 in series [9] is greater than 20 µM. In addition, in series [10], the logP is less than 5. Further, in the series with HeLa, the viability at 20 µM is 55%.

In the case of `CN[C@@H]1[C@H](O[C@H]2[C@H](O[C@H]3[C@H](O)[C@@H](O)[C@H](N=C(N)N)[C@@H](O)[C@@H]3N=C(N)N)O[C@@H](C)[C@]2(O)C=O)O[C@@H](CO)[C@H](O)[C@H]1O` [STREPTOMYCIN], the zone of inhibition at 10 µg/disc in the series on Pseudomonas aeruginosa [14] was found to be 20 mm.

Turning to `O=C1C(Cl)=C(Nc2nc(-c3ccccc3)cs2)C(=O)c2ccccc21`, the zone of inhibition at 10 µM with Pseudomonas aeruginosa [1] stood at 5.3 mm. For the same compound, the zone of inhibition at 2000 µM with Pseudomonas aeruginosa [2] was 13.2 mm. Besides, the zone of inhibition at 100 µM in the series on Pseudomonas aeruginosa [3] came to 9.1 mm. In addition, the MIC90 in series [6] was found to be 9.19 µM (≈ 3.37 µg/mL). In the series with SH-SY5Y, the Activity entry is “Dose-dependent effect” and the IC50 was 1.8 µM. Moreover, the Activity entry in the series on Pseudomonas aeruginosa [7] was “Dose-dependent effect”. Further, in the series with Plasmodium falciparum [8], the inhibition at 20 µM was determined as 10%. The MIC99 in series [9] was 10.2 µM (≈ 3.74 µg/mL). Besides, the logP in series [10] is less than 5. Further, the viability at 20 µM in the series with HeLa came to 80%. Moreover, the zone of inhibition at 1000 µM in the series on Pseudomonas aeruginosa [4] came out at 11.4 mm. Further, in the series on Pseudomonas aeruginosa [5], the “diameter of the inhibition zone (DIZ)” value was “inactive”.

For `CO[C@H]1/C=C/O[C@@]2(C)Oc3c(C)c(O)c4c(O)c(c(/C=N/N5CCN(C)CC5)c(O)c4c3C2=O)NC(=O)/C(C)=C\C=C\[C@H](C)[C@H](O)[C@@H](C)[C@@H](O)[C@@H](C)[C@H](OC(C)=O)[C@@H]1C` [RIFAMPIN], the MIC90 in series [6] amounted to 0.0015 µM (≈ 0.00123 µg/mL). Also, the MIC99 in series [9] was found to be 0.00167 µM (≈ 0.00137 µg/mL).

The values are drawn from ChEMBL document CHEMBL4340555, “Synthesis and biological evaluation of 2-chloro-3-[(thiazol-2-yl)amino]-1,4-naphthoquinones” (Bioorg Med Chem Lett, 2019).
